This note sets out measurements from patent publication US4942226A, “Halogenated pyrimidine nucleosides and their derivatives” (Merck & Co., Inc., priority 1988, dated 1990).

A short description of the series: Determination of Ester Half-lives (conversion of ester to alcohol in phosphate buffer at 37°, HPLC). The class given is physicochemical. The following applies: read-out: t1/2 (time required for 50% conversion of ester to alcohol). On the procedure:
Determination of Ester Half-lives
Two mL of phosphate buffer preheated to 37° were added to approximately 0.5 mg of the ester dihydrochloride. The resulting solution was heated at 37° while 20 μL samples were removed at intervals and injected directly into the HPLC injection port.
Unreacted ester and 5-halo-2'-deoxyuridine concentrations were determined by HPLC analysis on a C-18 reverse phase column using a gradient of 98% pH 2.4 phosphoric acid--2% acetonitrile to 70% pH 2.4 phosphoric acid--30% acetonitrile over 10 minutes. The UV detector was set at 280 nm. The half-life (t1/2) is the time required for 50% conversion of ester to alcohol.

Counter-ions that a name gives are not always drawn. Like-named read-outs stand apart in the source and are kept apart here.

For `CCNCCNCC(=O)O[C@H]1C[C@H](n2cc(Br)c(=O)[nH]c2=O)O[C@@H]1CO` [Example 1, 5-Bromo-2'-deoxyuridine 3'-N-(2-Ethylaminoethyl)-glycyl Ester Dihydrochloride], the half-life (pH 6.8, 37°) was determined as 32 min and the half-life (pH 7.4, 37°) was determined as 26 min.

Turning to `O=C(CNCCNCCC1CCCCC1)O[C@H]1C[C@H](n2cc(Br)c(=O)[nH]c2=O)O[C@@H]1CO` [Example 2, 5-Bromo-2'-deoxyuridine 3'-[N-(2-(2-Cyclohexylethylamino)ethyl)glycyl]esterDihydrochloride], the half-life (pH 6.8, 37°) came out at 47 min and the half-life (pH 7.4, 37°) was determined as 29 min.

Regarding `O=C(CNCCNCCC1CCCCC1)OC[C@H]1O[C@@H](n2cc(Br)c(=O)[nH]c2=O)C[C@@H]1O` [Example 3, 5-Bromo-2'-deoxyuridine 5'-N-(2-(2-cyclohexylethylamino)ethyl]glycyl Ester Dihydrochloride], the half-life is, setting by setting: (pH 6.8, 37°) 35 min; (pH 7.4, 37°) 22 min.
